Measurements published in patent US20260034064A1, “COMPOSITIONS FOR THE TREATMENT OF CFTR-MEDIATED DISEASES” (Vertex Pharmaceuticals Incorporated, priority 2022, published 2026).

What was measured:
[1] = Thermodynamic stability of solid forms of Compound I; type: physicochemical; conditions: compared with other forms of Compound I; no method or data given
[2] = Bioavailability of the solid form of Compound I; conditions: no species, dose or data printed

SMILES: Cc1nn(C)cc1S(=O)(=O)NC(=O)c1ccc(-n2ccc(OCC(C)(C)C(F)(F)F)n2)nc1N1C[C@@H](C)CC1(C)C [Crystalline Compound I Form A, N-(1,3-dimethylpyrazol-4-yl)sulfonyl-6-[3-(3,3,3-trifluoro-2,2-dimethyl-propoxy)pyrazol-1-yl]-2-[(4S)-2,2,4-trimethylpyrrolidin-1-yl]pyridine-3-carboxamide]
- thermodynamic stability of the solid form [1]: most thermodynamically stable form
- bioavailability [2]: good bioavailability
